Measured values: PubChem BioAssay AID1963430 (Molecular Pharmacology Branch, DTP, NCI, 2024)
Blank lines part the entries; values can stand above or below the molecule they belong to.

Test system: 521955-158-R2-J5-PDC complex spheroid growth, % test/control
Assay: Anticancer human tumor 521955-158-R2-J5-PDC patient-derived pancreatic carcinoma cell line growth inhibition [Asc]
Details: for IC50: curve of first compound; for viability, T/C: stronger effect = lower value
Method in brief: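 Spheroid model: tumor line + HUVEC + hMSC. Single agents and combinations; top conc. at/near clinical Cmax (10 microM if undetermined), half-log dilutions. DMSO stocks at 800-fold test concentration.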

[1] = second compound 0.1 µM, first compound 0.00316 µM
[2] = second compound 0.1 µM, first compound 0.01 µM
[3] = second compound 0.1 µM, first compound 0.0316 µM
[4] = second compound 0.1 µM, first compound 0.1 µM
[5] = second compound 0.316 µM, first compound 0.00316 µM
[6] = second compound 0.316 µM, first compound 0.01 µM
[7] = second compound 0.316 µM, first compound 0.0316 µM
[8] = second compound 0.316 µM, first compound 0.1 µM
[9] = second compound 1 µM, first compound 0.00316 µM
[10] = second compound 1 µM, first compound 0.01 µM
[11] = second compound 1 µM, first compound 0.0316 µM
[12] = second compound 1 µM, first compound 0.1 µM
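Note: spheroids exposed to agents for 7 days before readout.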
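Throughout, for viability, T/C: 100% = DMSO vehicle control viability.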

IC50 (second compound 0.1 µM): 2.46 nM
IC50 (second compound 0.316 µM): < 0.316 nM
IC50 (second compound 1 µM): < 0.316 nM
IC50 (second compound 3.16 µM): < 0.316 nM
IC50 (second compound 10 µM): 22.1 nM
SMILES: NC1CCC(NC2CC2c2ccccc2)CC1 (stereo not given) + Cc1c(S(C)(=O)=O)c(-c2cc(F)cc(N3CCN(c4ccc(NS(=O)(=O)c5ccc(NC(CCN6CCC(C(=O)OCCCP(=O)(O)O)CC6)CSc6ccccc6)c(S(=O)(=O)C(F)(F)F)c5)cc4)CC3)c2)c(-c2ccc(Cl)cc2)n1C(C)C
viability, T/C (second compound 0.1 µM, first compound 0.000316 µM): 58%
viability, T/C (second compound 0.1 µM, first compound 0.001 µM): 46.2%
viability, T/C [1]: 56.8%
viability, T/C [2]: 48.5%
viability, T/C [3]: 37.8%
viability, T/C [4]: 48.4%
viability, T/C (second compound 0.316 µM, first compound 0.000316 µM): 40.8%
viability, T/C (second compound 0.316 µM, first compound 0.001 µM): 36.3%
viability, T/C [5]: 47.8%
viability, T/C [6]: 38.4%
viability, T/C [7]: 46%
viability, T/C [8]: 49%
viability, T/C (second compound 1 µM, first compound 0.000316 µM): 27.9%
viability, T/C (second compound 1 µM, first compound 0.001 µM): 33.9%
viability, T/C [9]: 34.6%
viability, T/C [10]: 34.8%
viability, T/C [11]: 39.7%
viability, T/C [12]: 34.6%
viability, T/C (second compound 3.16 µM, first compound 0.000316 µM): 41.6%
viability, T/C (second compound 3.16 µM, first compound 0.001 µM): 32.8%
viability, T/C (second compound 3.16 µM, first compound 0.00316 µM): 25.4%
viability, T/C (second compound 3.16 µM, first compound 0.01 µM): 26.5%
viability, T/C (second compound 3.16 µM, first compound 0.0316 µM): 30.7%
viability, T/C (second compound 3.16 µM, first compound 0.1 µM): 33.9%
viability, T/C (second compound 10 µM, first compound 0.000316 µM): 58%
viability, T/C (second compound 10 µM, first compound 0.001 µM): 48.3%
viability, T/C (second compound 10 µM, first compound 0.00316 µM): 31.8%
viability, T/C (second compound 10 µM, first compound 0.01 µM): 71.6%
viability, T/C (second compound 10 µM, first compound 0.0316 µM): 44.7%
viability, T/C (second compound 10 µM, first compound 0.1 µM): 39.1%

IC50 (second compound 0.01 µM): 8.04 nM
IC50 (second compound 0.0316 µM): 21 nM
IC50 (second compound 0.1 µM): 9.32 nM
IC50 (second compound 0.316 µM): 14.9 nM
IC50 (second compound 1 µM): 21.9 nM
SMILES: COc1c(OCCCN2CCOCC2)ccc2c3n(c(=NC(=O)c4cnc(N)nc4)nc12)CCN3 + CNC(C)C(=O)NC1CN(S(=O)(=O)c2cccc(S(=O)(=O)N3CCC4CCC(C(=O)NC(c5ccccc5)c5ccccc5)N4C(=O)C(NC(=O)C(C)NC)C3)c2)CCC2CCC(C(=O)NC(c3ccccc3)c3ccccc3)N2C1=O
viability, T/C (second compound 0.01 µM, first compound 0.00316 µM): 63.6%
viability, T/C (second compound 0.01 µM, first compound 0.01 µM): 42.8%
viability, T/C (second compound 0.01 µM, first compound 0.0316 µM): 38.4%
viability, T/C (second compound 0.01 µM, first compound 0.1 µM): 25.5%
viability, T/C (second compound 0.01 µM, first compound 0.316 µM): 17.9%
viability, T/C (second compound 0.01 µM, first compound 1 µM): 11.8%
viability, T/C (second compound 0.0316 µM, first compound 0.00316 µM): 73.1%
viability, T/C (second compound 0.0316 µM, first compound 0.01 µM): 71.1%
viability, T/C (second compound 0.0316 µM, first compound 0.0316 µM): 35%
viability, T/C (second compound 0.0316 µM, first compound 0.1 µM): 30%
viability, T/C (second compound 0.0316 µM, first compound 0.316 µM): 18%
viability, T/C (second compound 0.0316 µM, first compound 1 µM): 11.5%
viability, T/C [1]: 71.3%
viability, T/C [2]: 43.6%
viability, T/C [3]: 36.1%
viability, T/C [4]: 27.9%
viability, T/C (second compound 0.1 µM, first compound 0.316 µM): 17.1%
viability, T/C (second compound 0.1 µM, first compound 1 µM): 11.6%
viability, T/C [5]: 91%
viability, T/C [6]: 52.8%
viability, T/C [7]: 35.6%
viability, T/C [8]: 34.8%
viability, T/C (second compound 0.316 µM, first compound 0.316 µM): 16.5%
viability, T/C (second compound 0.316 µM, first compound 1 µM): 13.1%
viability, T/C [9]: 83.3%
viability, T/C [10]: 64.5%
viability, T/C [11]: 42.5%
viability, T/C [12]: 28.6%
viability, T/C (second compound 1 µM, first compound 0.316 µM): 17.6%
viability, T/C (second compound 1 µM, first compound 1 µM): 12.9%

IC50 (second compound 0.03 µM): 5380 nM
IC50 (second compound 0.0949 µM): 5580 nM
IC50 (second compound 0.3 µM): 6040 nM
IC50 (second compound 0.949 µM): 6700 nM
IC50 (second compound 3 µM): 6810 nM
SMILES: C=C(F)C(=O)N1CCN(c2nc(OCC3CCCN3C)nc3c2CCN(c2cccc4cccc(Cl)c24)C3)CC1CC#N (stereo not given) + CCN1C(C(=O)NC23CCC(C(=O)O)(CC2)CC3)C(c2cccc(Cl)c2F)C2(C(=O)Nc3cc(Cl)ccc32)C12CCCCC2
viability, T/C (second compound 0.03 µM, first compound 0.0316 µM): 95.2%
viability, T/C (second compound 0.03 µM, first compound 0.1 µM): 95.1%
viability, T/C (second compound 0.03 µM, first compound 0.316 µM): 77.5%
viability, T/C (second compound 0.03 µM, first compound 1 µM): 85.2%
viability, T/C (second compound 0.03 µM, first compound 3.16 µM): 110%
viability, T/C (second compound 0.03 µM, first compound 10 µM): 0.26%
viability, T/C (second compound 0.0949 µM, first compound 0.0316 µM): 98%
viability, T/C (second compound 0.0949 µM, first compound 0.1 µM): 103%
viability, T/C (second compound 0.0949 µM, first compound 0.316 µM): 71.4%
viability, T/C (second compound 0.0949 µM, first compound 1 µM): 91.5%
viability, T/C (second compound 0.0949 µM, first compound 3.16 µM): 128%
viability, T/C (second compound 0.0949 µM, first compound 10 µM): 0.27%
viability, T/C (second compound 0.3 µM, first compound 0.0316 µM): 110%
viability, T/C (second compound 0.3 µM, first compound 0.1 µM): 98.2%
viability, T/C (second compound 0.3 µM, first compound 0.316 µM): 108%
viability, T/C (second compound 0.3 µM, first compound 1 µM): 113%
viability, T/C (second compound 0.3 µM, first compound 3.16 µM): 141%
viability, T/C (second compound 0.3 µM, first compound 10 µM): 0.27%
viability, T/C (second compound 0.949 µM, first compound 0.0316 µM): 130%
viability, T/C (second compound 0.949 µM, first compound 0.1 µM): 95.8%
viability, T/C (second compound 0.949 µM, first compound 0.316 µM): 109%
viability, T/C (second compound 0.949 µM, first compound 1 µM): 112%
viability, T/C (second compound 0.949 µM, first compound 3.16 µM): 152%
viability, T/C (second compound 0.949 µM, first compound 10 µM): 12.7%
viability, T/C (second compound 3 µM, first compound 0.0316 µM): 120%
viability, T/C (second compound 3 µM, first compound 0.1 µM): 154%
viability, T/C (second compound 3 µM, first compound 0.316 µM): 146%
viability, T/C (second compound 3 µM, first compound 1 µM): 137%
viability, T/C (second compound 3 µM, first compound 3.16 µM): 188%
viability, T/C (second compound 3 µM, first compound 10 µM): 0.35%
